Test results as given in patent US20240287110A1, “PHOSPHATE OF TRIFLUOROMETHYL-SUBSTITUTED SULFONAMIDE COMPOUND” (CHIA TAI TIANQING PHARMACEUTICAL GROUP CO., LTD., priority 2021, published 2024).
pIC50: −log10 of the molar value. In brackets after ≈: the same amount, converted by molar mass.

Key:
RS4; 11 cells = experiment: Inhibitory effect on proliferation of RS4; 11 cells (CCK-8); type: cell-based; details: Homo sapiens, 72 h, CCK-8, 5% serum
Method: RS4; 11 cells in logarithmic growth phase and good cell condition were added to a centrifuge tube and centrifuged at 1500 rpm for 3 min in a low speed centrifuge. The supernatant was discarded, and 5 mL of complete medium (RPMI basic medium+10% FBS) was added using a pipette for cell resuspension. The cells were counted using a cell counter and diluted with complete medium to a cell density of 2×10^5 cells/mL, and then an equivalent amount of RPMI basic medium was added to adjust the serum concentration to 5% and the cell density to 1×10^5 cells/mL for plate seeding. The cells were seeded on a 96-well plate at […] using a multi-channel pipette and cultured in a cell incubator at 37° C., 5% CO2 with saturated humidity. After 24 h of incubation, compounds (500-0.1 nM) were loaded using a nanoliter pipettor, 2 replicate wells were set for each concentration, and cells without compound were used as negative controls. After 72 h, CCK-8 was added at 10 μL/well for incubation for 4 h, then absorbance was measured at 450 nm with an Envision plate reader, and inhibition rate was calculated. […] A dose-response curve was fitted by four-parameter analysis, with the logarithm of compound concentration as abscissa and inhibition rate as ordinate, so that IC50 was calculated (see Table 2).

BCL-2/BAK = biological target: T1, BCL-2/BAK (Homo sapiens, UniProt P10415); experiment: Screening on inhibitory activity for BCL-2/BAK binding (Cisbio HTRF kit); details: Tag1-BCL-2 / Tag2-BAK binding, 25° C.
T1 construct: purchased Cisbio 63ADK000CB01PEH
T1 sequence (P10415 whole entry, species assumed): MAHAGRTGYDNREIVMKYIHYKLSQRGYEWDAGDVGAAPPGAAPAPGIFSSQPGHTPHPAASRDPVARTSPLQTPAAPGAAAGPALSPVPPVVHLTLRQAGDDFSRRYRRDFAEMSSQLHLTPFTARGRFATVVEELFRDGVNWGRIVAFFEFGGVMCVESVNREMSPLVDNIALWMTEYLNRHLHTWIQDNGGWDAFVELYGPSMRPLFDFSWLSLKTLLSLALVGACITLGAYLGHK
Method: A 500 nM Tag1-BCL-2 protein stock solution and a 20 μM Tag2-BAK protein stock solution were diluted to 5 nM and 120 nM respectively with a dilution buffer in a kit (manufacturer: Cisbio, Cat. No.: 63ADK000CB01PEH). […] of Tag1-BCL-2 protein diluent was added to each well, and then different compounds dissolved in DMSO were added to the wells using a nanoliter pipettor, allowing the final compound concentrations to be 200 nM to 0.0488 nM (4-fold gradient for 7 concentrations in total). Blank control wells (without enzyme) and negative control wells (with enzyme, plus vehicle DMSO) were set, and 2 replicate wells were set. Finally, 5 μL of Tag2-BAK protein diluent was added to each well, and the mixture was mixed well by centrifugation and incubated at 25° C. for 15 min. 100× anti-Tag1-Eu^3+ and 100× anti-Tag2-XL665 were both diluted to 1× working concentration with a detection buffer in the kit. Anti-Tag1-Eu^3+ and anti-Tag2-XL665 were mixed well in a 1:1 ratio, and 5 μL of the mixture was added to each well. The resulting mixture was incubated at 25° C. for 2 h or more. The plate was read using a PE Envision multi-functional microplate reader (excitation: 620 nm, emission: 665 nm), and IC50 (shown in Table 1) was calculated by four-parameter fitting.

[1] = Determination of solubility in water at pH 7.4; type: physicochemical; details: aqueous phosphate medium, aqueous buffer, thermodynamic from solid; pH 7.4, 25° C.
Method: Reagents used were 0.2 M NaOH (SinoPharm lot No. 20180223) and 0.2 M phosphate (SinoPharm 20180910, pH 7.4). Instruments/equipment used included a balance (HPLC Dionex U3000, Mettler XPE105DR), pipettes (TIANBO 0.5 mL and 0.1 mL), a thermostatic CNC shaker (ZWY-240, set at 25° C. and 200 rpm).
The example compounds were tested in an aqueous medium at 25° C. An excess of each example compound was weighed out and mixed with an aliquot of the target medium in a clear glass vial. The vial was sealed with a cap and then shaken in the shaker at 25° C. as appropriate. When equilibration was completed, the sample was removed from the shaker and the final pH was measured. The suspension was filtered through a 13 mm needle-type filter and a 0.22 m Syring Filter needle-type filter (hydrophilic PTFE-SA membrane, lot No. HKS13SATQ2B). Each filter was used for only one sample. The determination was carried out after the filtrate had been suitably diluted with the same solvent as used for the stock solution. The concentration of the sample was calculated based on a calibration curve of the compound.

BCL-XL/BAK = biological target: T2, BCL-XL/BAK (Homo sapiens, UniProt Q07817); experiment: Screening on inhibitory activity for BCL-XL/BAK binding (Cisbio HTRF kit); details: Tag1-BCL-XL / Tag2-BAK binding, 25° C.
T2 construct: purchased Cisbio 63ADK000CB04PEH
T2 sequence (Q07817 whole entry, species assumed): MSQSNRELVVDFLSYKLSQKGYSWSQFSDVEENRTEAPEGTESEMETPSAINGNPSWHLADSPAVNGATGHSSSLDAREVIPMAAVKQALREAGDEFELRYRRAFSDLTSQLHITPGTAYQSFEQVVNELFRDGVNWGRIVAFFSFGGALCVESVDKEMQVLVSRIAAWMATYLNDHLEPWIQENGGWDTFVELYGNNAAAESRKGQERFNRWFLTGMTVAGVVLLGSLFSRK
Method: A 300 nM Tag1-BCL-XL protein stock solution and a 10 μM Tag2-BAK protein stock solution were diluted to 2 nM and 80 nM respectively with a dilution buffer in a kit (manufacturer: Cisbio, Cat. No.: 63ADK000CB04PEH). 5 μL of Tag1-BCL-XL protein diluent was added to each well, and then different compounds dissolved in DMSO were added to the wells using a nanoliter pipettor, allowing the final compound concentrations to be 2000 nM to 0.488 nM (4-fold gradient for 7 concentrations in total). Blank control wells (without enzyme) and negative control wells (with enzyme, plus vehicle DMSO) were set, and 2 replicate wells were set. Finally, 5 μL of Tag2-BAK protein diluent was added to each well, and the mixture was mixed well by centrifugation and incubated at 25° C. for 15 min. 100× anti-Tag1-Eu^3+ and 100× anti-Tag2-XL665 were both diluted to 1× working concentration with a detection buffer in the kit. Anti-Tag1-Eu^3+ and anti-Tag2-XL665 were mixed well in a 1:1 ratio, and 5 μL of the mixture was added to each well. The resulting mixture was incubated at 25° C. for 2 h or more. The plate was read using a PE Envision multi-functional microplate reader (excitation: 620 nm, emission: 665 nm), and IC50 (shown in Table 1) was calculated by four-parameter fitting.

`CC1(C)CCC(CN2CCN(c3ccc(C(=O)NS(=O)(=O)c4ccc(NC[C@H]5COCCO5)c([N+](=O)[O-])c4)c(Oc4cc5ccnc-5n(COP(=O)(O)O)c4)c3)CC2)=C(c2ccc(C(F)(F)F)cc2Cl)C1` [Example 1] gave a pIC50 (RS4; 11 cells) of 7.80, a pIC50 (BCL-2/BAK) of 8.52 and a solubility [1] of 19.4 mg/mL (≈ 18.5 mM). It also gave a pIC50 (BCL-XL/BAK) of 6.48.

Work on `Cc1cc(C(F)(F)F)ccc1C1=C(CN2CCN(c3ccc(C(=O)NS(=O)(=O)c4ccc(NC[C@H]5COCCO5)c([N+](=O)[O-])c4)c(Oc4cc5ccnc-5n(COP(=O)(O)O)c4)c3)CC2)CCC(C)(C)C1` [Example 2] yielded a pIC50 (RS4; 11 cells) of 7.83, a pIC50 (BCL-2/BAK) of 8.54 and a solubility [1] of 2.23 mg/mL (≈ 2.17 mM). For the same molecule, the pIC50 (BCL-XL/BAK) was 6.60.
